Laboratory results as given in PubChem BioAssay AID192 (DTP/NCI, 2004).
“And” between values parts separate entries of the source, which are not always exact repeats. Equal entries are not always repeated. Inconclusive results and toxic doses are left out. Square brackets hold non-standard residues; d marks the D form. Peptide text beside a SMILES is read from it. * marks the point of attachment. ξ: configuration not given here. ξF = NC(Cc1ccccc1)C(=O)O; Nle = CCCC[CH](N)C(=O)O; Cbz = O=C(OCc1ccccc1)*; Sar = CNCC(=O)O

Test system: BDF1 mice, B16 melanoma ip, median survival T/C
Experiment: NCI In Vivo Anticancer Drug Screen. Data for tumor model B16 Melanoma (intraperitoneal) in B6D2F1 (BDF1) mice
Settings: endpoint: median survival time, higher = longer survival
Procedure, shortened: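 Mice with transplantable tumors; drug vs vehicle groups; endpoint survival or tumor size; value = T/C.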

[1] = dose: 25.0 mg/kg/injection, schedule: Q01DX009 (ip), vehicle: saline with Tween-80
[2] = dose: 50.0 mg/kg/injection, schedule: Q01DX009 (ip), vehicle: saline with Tween-80
[3] = dose: 100.0 mg/kg/injection, schedule: Q01DX009 (ip), vehicle: saline with Tween-80
[4] = dose: 200.0 mg/kg/injection, schedule: Q01DX009 (ip), vehicle: saline with Tween-80
[5] = dose: 400.0 mg/kg/injection, schedule: Q01DX009 (ip), vehicle: saline with Tween-80
[6] = dose: 1.56 mg/kg/injection, schedule: Q01DX009 (ip), vehicle: saline
[7] = dose: 3.12 mg/kg/injection, schedule: Q01DX009 (ip), vehicle: saline
[8] = dose: 6.25 mg/kg/injection, schedule: Q01DX009 (ip), vehicle: saline
[9] = dose: 12.5 mg/kg/injection, schedule: Q01DX009 (ip), vehicle: saline
[10] = dose: 25.0 mg/kg/injection, schedule: Q01DX009 (ip), vehicle: saline
[11] = dose: 50.0 mg/kg/injection, schedule: Q01DX009 (ip), vehicle: saline
[12] = dose: 100.0 mg/kg/injection, schedule: Q01DX009 (ip), vehicle: Klucel (hydroxypropylcellulose) (HPC)
[13] = dose: 200.0 mg/kg/injection, schedule: Q01DX009 (ip), vehicle: Klucel (hydroxypropylcellulose) (HPC)
[14] = dose: 400.0 mg/kg/injection, schedule: Q01DX009 (ip), vehicle: Klucel (hydroxypropylcellulose) (HPC)
[15] = dose: 100.0 mg/kg/injection, schedule: Q01DX009 (ip), vehicle: saline
[16] = dose: 200.0 mg/kg/injection, schedule: Q01DX009 (ip), vehicle: saline
[17] = dose: 12.5 mg/kg/injection, schedule: Q01DX009 (ip), vehicle: saline with Tween-80
[18] = dose: 0.39 mg/kg/injection, schedule: Q01DX009 (ip), vehicle: saline
[19] = dose: 0.78 mg/kg/injection, schedule: Q01DX009 (ip), vehicle: saline

For `CC1C=NNC1=O` (stereo not drawn), the T/C [1] was 90 % of control, the T/C [2] was 90 % of control and the T/C [3] was 95 % of control. The T/C (dose: 100.0 mg/kg/injection, schedule: Q04DX003 (ip), vehicle: other) was 105 % of control, the T/C (dose: 125.0 mg/kg/injection, schedule: Q01DX009 (ip), vehicle: other) was 105 % of control and the T/C (dose: 125.0 mg/kg/injection, schedule: Q04DX003 (ip), vehicle: other) was 100 % of control. The T/C [4] was 90 % of control, the T/C (dose: 200.0 mg/kg/injection, schedule: Q04DX003 (ip), vehicle: other) was 95 % of control and the T/C (dose: 250.0 mg/kg/injection, schedule: Q01DX009 (ip), vehicle: other) was 100 % of control. The T/C (dose: 250.0 mg/kg/injection, schedule: Q04DX003 (ip), vehicle: other) was 100 % of control, the T/C (dose: 266.0 mg/kg/injection, schedule: Q04DX003 (ip), vehicle: saline with Tween-80) was 197 % of control and the T/C [5] was 116 % of control. The T/C (dose: 400.0 mg/kg/injection, schedule: Q04DX003 (ip), vehicle: other) was 92 % of control, the T/C (dose: 400.0 mg/kg/injection, schedule: Q04DX003 (ip), vehicle: saline with Tween-80) was 200 % of control and the T/C (dose: 500.0 mg/kg/injection, schedule: Q01DX009 (ip), vehicle: other) was 111 % of control. The T/C (dose: 500.0 mg/kg/injection, schedule: Q04DX003 (ip), vehicle: other) was 102 % of control and the T/C (dose: 600.0 mg/kg/injection, schedule: Q04DX003 (ip), vehicle: saline with Tween-80) was 183 % of control.

In the case of `c1ccc(C2CN3CCSC3=N2)cc1` (stereo not drawn), the T/C [6] is reported as 103 % of control, the T/C [7] is reported as 104 % of control and the T/C [8] is reported as 96 % of control. The T/C [9] was 94 % of control and the T/C [10] was 100 % of control.

`Nc1n[nH]c(N)n1` was tested, and the T/C [11] was 99 % of control and 100 % of control, the T/C [12] was 100 % of control (2×) and 108 % of control and the T/C (dose: 100.0 mg/kg/injection, schedule: Q01DX009 (ip), vehicle: saline sonified) was 90 % of control. For the same compound, the T/C [3] was 95 % of control and 97 % of control and 120 % of control, the T/C [13] was 94 % of control and 102 % of control (2×) and the T/C (dose: 200.0 mg/kg/injection, schedule: Q01DX009 (ip), vehicle: saline sonified) was 97 % of control and 100 % of control. For the same compound, the T/C [4] was 100 % of control and 107 % of control, the T/C [14] was 92 % of control and 108 % of control and 110 % of control and the T/C (dose: 400.0 mg/kg/injection, schedule: Q01DX009 (ip), vehicle: saline sonified) was 95 % of control and 97 % of control. For the same compound, the T/C (dose: 800.0 mg/kg/injection, schedule: Q01DX009 (ip), vehicle: Klucel (hydroxypropylcellulose) (HPC)) was 86 % of control and 107 % of control and 111 % of control, the T/C (dose: 800.0 mg/kg/injection, schedule: Q01DX009 (ip), vehicle: saline sonified) was 92 % of control and 100 % of control and the T/C (dose: 1600.0 mg/kg/injection, schedule: Q01DX009 (ip), vehicle: saline with Tween-80) was 93 % of control. For the same compound, the T/C (dose: 3200.0 mg/kg/injection, schedule: Q01DX009 (ip), vehicle: saline with Tween-80) was 97 % of control.

`O=C(O)c1ccc(O)c([N+](=O)[O-])c1` was tested, and the T/C [15] was 115 % of control and the T/C [16] was 87 % of control.

With `CCCCC(NC(=O)C(Cc1ccccc1)NC(=O)OCc1ccccc1)C(=O)O` (stereo not drawn) (Cbz-Phe-[Nle]-OH; configuration not given here) the T/C [2] was 92 % of control and the T/C [3] was 100 % of control.

In the case of `O=C(O)C1CCCCC1C(=O)Nc1ccc(F)cc1` (stereo not drawn), the T/C [1] is reported as 105 % of control, the T/C [2] is reported as 105 % of control and the T/C [3] is reported as 88 % of control and 96 % of control.

In the case of `CC(c1c[nH]c2ccccc12)N1CCCCC1` (stereo not drawn), the T/C (dose: 12.5 mg/kg/injection, schedule: Q01DX009 (ip), vehicle: Klucel (hydroxypropylcellulose) (HPC)) is reported as 97 % of control, the T/C (dose: 25.0 mg/kg/injection, schedule: Q01DX009 (ip), vehicle: Klucel (hydroxypropylcellulose) (HPC)) is reported as 95 % of control and the T/C (dose: 50.0 mg/kg/injection, schedule: Q01DX009 (ip), vehicle: Klucel (hydroxypropylcellulose) (HPC)) is reported as 98 % of control.

With `COc1ccc(Cl)cc1NC(=O)C(Br)C(Br)C(=O)O` (stereo not drawn) the T/C [17] was 102 % of control, the T/C [1] was 105 % of control and the T/C [2] was 95 % of control. For the same compound, the T/C [3] was 89 % of control and the T/C [4] was 91 % of control.

With `O=C(CCCN1CCC2(CC1)C(=O)NCN2c1ccccc1)c1ccc(F)cc1` the T/C [18] was 92 % of control, the T/C [19] was 89 % of control and the T/C [6] was 94 % of control.

`COc1ccc2c(c1)CCC(c1ccccc1)=C2c1ccc(OCCN2CCCC2)cc1` was tested, and the T/C (dose: 6.0 mg/kg/injection, schedule: Q01DX009 (ip), vehicle: saline sonified) was 102 % of control, the T/C (dose: 12.0 mg/kg/injection, schedule: Q01DX009 (ip), vehicle: saline sonified) was 111 % of control and the T/C (dose: 24.0 mg/kg/injection, schedule: Q01DX009 (ip), vehicle: saline sonified) was 111 % of control.

In the case of `CC(CN1CCN(CCOCCO)CC1)CN1c2ccccc2Sc2ccc(Cl)cc21` (stereo not drawn), the T/C (dose: 0.09 mg/kg/injection, schedule: Q01DX009 (ip), vehicle: saline) is reported as 117 % of control, the T/C (dose: 0.19 mg/kg/injection, schedule: Q01DX009 (ip), vehicle: saline) is reported as 98 % of control and the T/C [18] is reported as 121 % of control. For the same compound, the T/C [19] was 104 % of control, the T/C [6] was 115 % of control and the T/C [7] was 100 % of control. For the same compound, the T/C [8] was 101 % of control.

With `CN(CC(=O)NC(Cc1ccccc1)C(=O)O)C(=O)OCc1ccccc1` (stereo not drawn) (Cbz-[Sar]-[ξF]-OH) the T/C [2] was 97 % of control, the T/C [3] was 96 % of control and the T/C [4] was 103 % of control.

With `Cc1noc2nccnc12` the T/C [17] was 92 % of control, the T/C [1] was 95 % of control and the T/C [2] was 88 % of control.

In the case of `CC1CN1P(=O)(OCCC#N)N1CC1C` (stereo not drawn), the T/C [11] is reported as 121 % of control, the T/C [15] is reported as 115 % of control and the T/C [16] is reported as 120 % of control.

For `COc1cc(OC)c(NC(=O)c2ccccc2Cl)cc1Cl`, the T/C [12] was 97 % of control, the T/C [13] was 102 % of control and the T/C [14] was 102 % of control.

`CCN(C(=O)Nc1ccc(Cl)cc1)c1ccccc1C` was tested, and the T/C [3] was 97 % of control, the T/C [4] was 102 % of control and the T/C [5] was 97 % of control.

`COc1cc(Cc2nccc3cc(OC)c(OC)cc23)c(C(C)=O)c(OC)c1` was tested, and the T/C (dose: 10.0 mg/kg/injection, schedule: Q01DX009 (ip), vehicle: saline) was 101 % of control, the T/C (dose: 20.0 mg/kg/injection, schedule: Q01DX009 (ip), vehicle: saline) was 107 % of control and the T/C (dose: 40.0 mg/kg/injection, schedule: Q01DX009 (ip), vehicle: saline) was 107 % of control. The T/C (dose: 80.0 mg/kg/injection, schedule: Q01DX009 (ip), vehicle: saline) was 107 % of control.

In the case of `NC(=O)c1ccc[n+](Cc2c(Cl)cccc2Cl)c1`, the T/C (dose: 0.75 mg/kg/injection, schedule: Q01DX009 (ip), vehicle: saline) is reported as 99 % of control, the T/C (dose: 1.5 mg/kg/injection, schedule: Q01DX009 (ip), vehicle: saline) is reported as 96 % of control and 102 % of control and the T/C (dose: 3.0 mg/kg/injection, schedule: Q01DX009 (ip), vehicle: saline) is reported as 102 % of control and 111 % of control. For the same compound, the T/C (dose: 6.0 mg/kg/injection, schedule: Q01DX009 (ip), vehicle: saline) was 98 % of control, the T/C (dose: 12.0 mg/kg/injection, schedule: Q01DX009 (ip), vehicle: saline) was 98 % of control and 99 % of control and the T/C (dose: 24.0 mg/kg/injection, schedule: Q01DX009 (ip), vehicle: saline) was 105 % of control.

`N#CCc1ccccc1C(=O)O` was tested, and the T/C (dose: 100.0 mg/kg/injection, schedule: Q04DX003 (ip), vehicle: gum acacia) was 97 % of control.

For `COC(=O)[C@@H]1c2cc3c(c(O)c2[C@@H](OC)C[C@@]1(C)O)C(=O)c1c(O)cc2c(c1C3=O)OC1O[C@@]2(C)[C@H](O)[C@@H](N(C)C)[C@@H]1O`, the T/C [9] was 155 % of control and 158 % of control, the T/C [10] was 165 % of control and 178 % of control and the T/C [11] was 184 % of control and 186 % of control. For the same compound, the T/C [16] was 153 % of control.

In the case of `CC(C)(C#N)N1CCCCC1`, the T/C (dose: 0.03 mg/kg/injection, schedule: Q01DX009 (ip), vehicle: saline) is reported as 97 % of control, the T/C (dose: 0.07 mg/kg/injection, schedule: Q01DX009 (ip), vehicle: saline) is reported as 104 % of control and the T/C (dose: 0.15 mg/kg/injection, schedule: Q01DX009 (ip), vehicle: saline) is reported as 98 % of control. The T/C (dose: 2.5 mg/kg/injection, schedule: Q01DX009 (ip), vehicle: saline) was 102 % of control.

With `O=C(Oc1ccc(Cl)cc1)c1ccc(Cl)cc1` the T/C (dose: 75.0 mg/kg/injection, schedule: Q04DX003 (ip), vehicle: Klucel (hydroxypropylcellulose) (HPC)) was 100 % of control.
